According to publication PMC8068801, “Novel Benzenesulfonate Scaffolds with a High Anticancer Activity and G2/M Cell Cycle Arrest” (Cancers, 2021):

Experiments:
[1] = tested on: K562 cells; assay: Autophagy assay (Muse LC3-antibody kit), K562; format: cell-based, human; conditions: K562, 0.5 μM, vs control
Procedure: (§1) The K562 and U-251 cells were seeded in 96-well plates (Nunc) and incubated at 37 °C for 24 h. The density of the cells was 20,000 cells per well (for the 24 h assay) and 10,000 per well (for the 48 h assay). […] After treatment, the assays were performed using a Muse™ Autophagy LC3-antibody based kit (Millipore) according to the manufacturer’s instructions. Briefly, the cells were collected, washed with cold HPBS and centrifuged at 300 g for 5 min. […] The samples were incubated on ice for 30 min in the dark. After incubation, the cells were centrifuged and resuspended in 200 μL of a 1X Assay Buffer. Then, the samples were directly processed to analyze the autophagy induction using a Muse Cell Analyzer. The autophagy induction ratio was calculated on the basis of the ratio between the target sample fluorescence versus the control sample. The experiments were performed at least three times.

[2] = tested on: U-251 cells; assay: Autophagy assay (Muse LC3-antibody kit), U-251; format: cell-based, human; conditions: U-251, 4 μM, 24 h; vs control
Procedure: as §1

SMILES	Autophagy induction ratio ([1]; 24 h)	Autophagy induction ratio ([1]; 48 h)	Autophagy induction ratio [2]
COc1ccccc1/C=C/c1nc(OS(=O)(=O)c2ccc3c(c2)OCO3)c2ccccc2n1 [BS1, 2-((E)-2-(2-methoxyphenyl)ethenyl)quinazolin-4-yl 1,3-benzodioxole-5-sulfonate]	2.26	1.96	–
COc1ccccc1/C=C/c1nc(OS(=O)(=O)c2ccc(C)cc2)c2ccccc2n1 [BS4, 2-((E)-2-(2-methoxyphenyl)ethenyl)quinazolin-4-yl 4-methylbenzenesulfonate]	–	–	5.03
